Results on four compounds are retold here after article PMC4002244, “ACE2 deficiency increases NADPH‐mediated oxidative stress in the kidney” (Physiological Reports, 2014).

The nature of series [1]: Ex vivo degradation of exogenous Ang II in kidney cortex lysates. It counts as in vitro ADME, mouse. The conditions noted are these: 6 μg protein, Ang II 10^-9 mol/L, PBS pH 7.4 with 5 μmol/L ZnCl2, 37°C, ELISA. As for the experimental part:
(§1) Kidney cortex lysates (from ACE2 KO and WT mice) corresponding to 6 μg of total protein were individually incubated with 10^−9mol/L angiotensin II (Sigma‐Aldrich, St. Louis, MO) by constant shaking for up to 24 h at 37°C in PBS pH 7.4 containing 5 μmol/L ZnCl2. The incubation was performed with or without addition of the specific ACE2 inhibitor, MLN‐4760 (10^−6mol/L). Following the incubation, samples were diluted 1/5 in EDTA‐containing buffer (0.1 mol/L phosphate buffer, pH 7.4 containing 0.15 mol/L NaCl, 1 mmol/L EDTA, 0.1% BSA) and immediately frozen. The quantity of Ang II in the diluted samples was measured using enzyme‐linked immunosorbent assay kits (SPIBio, Cayman Chemical). Angiotensin quantity in each sample was expressed as a percentage ratio of the Ang remaining after a given incubation time to the initial Ang load (100%).

A further series has as its target T1, ACE2 (Mus musculus, UniProt Q8R0I0).
T1 construct: from tissue; host or cells: kidney cortex of wild-type C57BL/6 mice (littermates of the ACE2KO mice)
Nature of the series: Ex vivo Ang II degradation by kidney cortex lysates with ACE2 inhibitor. The conditions noted are these: WT lysates (6 μg protein, n = 5), MLN-4760 10^-6 mol/L, Ang II 10^-9 mol/L, PBS pH 7.4 with 5 μmol/L ZnCl2, 37°C, up to 24 h, Ang II by ELISA; P < 0.05 vs. WT without MLN-4760; similar to ACE2KO. It counts as biochemical. As for the experimental part:
as §1

The test system of series [2] is kidney cortex NADPH oxidase activity. Nature of the series: Kidney cortex NADPH oxidase activity (lucigenin chemiluminescence) in ACE2KO mice after angiotensin receptor blockade. The series is classed as in vivo, mouse. The conditions noted are these: for Kidney cortex NADPH oxidase activity, percent of WT controls: male ACE2KO C57BL/6 mice, 2 weeks. How it is done: NADPH oxidase activity in kidney cortex was measured using lucigenin (5 μmol/L) and NADPH (100 μmol/L) as previously described (Block et al. 2007). Light emission was recorded every 1 min over a 10‐min period at room temperature in a 20/20^n luminometer (Turner Biosystems, Sunnyvale, CA). Superoxide anion production was expressed as relative chemiluminescence (light) units (RLU)/μg protein. There was no measurable activity in the absence of NADPH. Protein content was measured using the BCA protein assay reagent (Pierce, Rockford, IL).
ACE2KO and control mice at the age of 20–30 weeks were treated with losartan (Triangle Compounding Pharmacy, Cary, NC) or placebo for 2 weeks. Losartan was administered to ACE2KO at two doses: 10 mg/kg/day (n = 4) and 30 mg/kg/day (n = 5) in drinking water in two separate experiments. Another group of ACE2KO (n = 6) and WT controls (n = 5 and n = 10) were given vehicle drug, with similar taste and consistency. Water bottles were weighed daily to document accurate drug consumption. At the end of 2 weeks of treatment with losartan, we proceeded to measure markers of oxidative stress as described above.
A separate group of male ACE2 knockout mice at 35 weeks of age underwent either sham operation (n = 8) or osmotic minipump (Alzet 1002) implantation to infuse the AT2 receptor blocker, PD123319 (2 mg/kg/day, n = 8) for 14 days. Pumps were implanted subcutaneously on the back between the shoulder blades and hips while animals were anesthetized by inhalation of isoflurane anesthetic. At the end of 2 weeks of treatment with PD123319, we proceeded to measure markers of oxidative stress as described above.

SMILES strings stand for the structures.

T1 sequence (Q8R0I0 18-805): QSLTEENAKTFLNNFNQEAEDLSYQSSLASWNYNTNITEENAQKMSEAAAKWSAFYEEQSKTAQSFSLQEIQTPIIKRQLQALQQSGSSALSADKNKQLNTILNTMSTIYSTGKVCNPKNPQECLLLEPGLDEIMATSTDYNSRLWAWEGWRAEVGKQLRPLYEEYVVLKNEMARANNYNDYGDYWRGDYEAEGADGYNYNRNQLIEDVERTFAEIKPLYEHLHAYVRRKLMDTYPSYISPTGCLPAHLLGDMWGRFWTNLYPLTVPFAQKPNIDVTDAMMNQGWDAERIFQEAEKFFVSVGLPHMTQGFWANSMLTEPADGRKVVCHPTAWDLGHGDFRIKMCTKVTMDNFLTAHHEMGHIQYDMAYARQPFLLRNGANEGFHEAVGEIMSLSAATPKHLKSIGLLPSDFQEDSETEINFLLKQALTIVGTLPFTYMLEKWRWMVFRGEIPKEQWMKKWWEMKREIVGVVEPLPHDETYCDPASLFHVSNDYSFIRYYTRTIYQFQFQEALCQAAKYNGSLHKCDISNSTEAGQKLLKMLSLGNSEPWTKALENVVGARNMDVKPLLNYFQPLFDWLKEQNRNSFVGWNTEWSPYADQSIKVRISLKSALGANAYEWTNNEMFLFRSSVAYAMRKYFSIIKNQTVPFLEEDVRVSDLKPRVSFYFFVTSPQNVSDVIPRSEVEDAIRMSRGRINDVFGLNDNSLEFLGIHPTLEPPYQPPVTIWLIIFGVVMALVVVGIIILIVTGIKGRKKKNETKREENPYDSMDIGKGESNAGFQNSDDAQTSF

Turning to `CC[C@H](C)[C@H](NC(=O)[C@H](Cc1ccc(O)cc1)NC(=O)[C@@H](NC(=O)[C@H](CCCNC(=N)N)NC(=O)[C@@H](N)CC(=O)O)C(C)C)C(=O)N[C@@H](Cc1cnc[nH]1)C(=O)N1CCC[C@H]1C(=O)N[C@@H](Cc1ccccc1)C(=O)O` [Ang II, angiotensin II], the “Ang II degradation by WT versus ACE2KO kidney cortex lysates (in words)” value in series [1] (6 and 24 h of incubation, n = 5 per group, P < 0.05) was “kidney lysates from WT mice degrade significantly more Ang II than the lysates obtained from ACE2KO”. Also, the metabolised in series [1] (mouse, kidney cortex lysates (ACE2 KO, with MLN-4760 (ACE2 inhibitor, 10^-6 mol/L) in the WT lysates), lysates of ACE2 KO or WT + MLN-4760 (10^-6 mol/L), constant shaking, up to 24 h, n = 5, read-out: Proportion of Ang II degraded in kidney cortex lysates despite the lack of ACE2) was roughly 50%. As to `CC(C)C[C@H](N[C@@H](Cc1cncn1Cc1cc(Cl)cc(Cl)c1)C(=O)O)C(=O)O` [MLN-4760], the “Effect of co-incubation on Ang II degradation rate by WT kidney cortex lysates” value at ACE2 was “significant decrease in Ang II degradation rate”. Consider `Cc1cc(Cn2cnc3c2C[C@@H](C(=O)O)N(C(=O)C(c2ccccc2)c2ccccc2)C3)ccc1N(C)C` [PD123319], for which the “Kidney NADPH oxidase activity, percent of sham-operated ACE2KO mice” value in series [2] (male ACE2KO mice, 35 weeks old, PD123319 2 mg/kg/day subcutaneous osmotic minipump, 14 days, n = 8, sham-operated ACE2KO 100 ± 21%, P = 0.541, mean ± SEM, SEM) was 83 ± 17%.

In the case of `CCCCc1nc(Cl)c(CO)n1Cc1ccc(-c2ccccc2-c2nn[nH]n2)cc1` [losartan], the “Effect on kidney NADPH oxidase activity in ACE2KO (in words)” value in series [2] (ACE2KO mice, losartan 30 mg/kg/day) is “normalization of NADPH oxidase activity”. Also, the “Kidney cortex NADPH oxidase activity, percent of WT controls” value came out at 201 ± 22% in series [2] (losartan 10 mg/kg/day in drinking water, n = 4, vehicle WT 100 ± 20%, P < 0.05, vehicle ACE2KO 181 ± 24%, mean ± SEM, SEM) and 83 ± 29% in series [2] (losartan 30 mg/kg/day in drinking water, n = 5, vehicle WT 100 ± 18% (n = 10), P = 0.709, mean ± SEM, SEM).
